According to ChEMBL document CHEMBL4699562, “Design, syntheses and evaluations of novel indole derivatives as orally selective estrogen receptor degraders (SERD)” (Bioorg Med Chem Lett, 2020):
Calls of active or inactive are those of the source. No cut-off for these calls is given here.

Experiments:
[1] = molecular target: T1, Estrogen receptor (Homo sapiens, UniProt P03372); assay: Binding affinity to estrogen receptor (unknown origin)
T1 sequence (P03372 whole entry): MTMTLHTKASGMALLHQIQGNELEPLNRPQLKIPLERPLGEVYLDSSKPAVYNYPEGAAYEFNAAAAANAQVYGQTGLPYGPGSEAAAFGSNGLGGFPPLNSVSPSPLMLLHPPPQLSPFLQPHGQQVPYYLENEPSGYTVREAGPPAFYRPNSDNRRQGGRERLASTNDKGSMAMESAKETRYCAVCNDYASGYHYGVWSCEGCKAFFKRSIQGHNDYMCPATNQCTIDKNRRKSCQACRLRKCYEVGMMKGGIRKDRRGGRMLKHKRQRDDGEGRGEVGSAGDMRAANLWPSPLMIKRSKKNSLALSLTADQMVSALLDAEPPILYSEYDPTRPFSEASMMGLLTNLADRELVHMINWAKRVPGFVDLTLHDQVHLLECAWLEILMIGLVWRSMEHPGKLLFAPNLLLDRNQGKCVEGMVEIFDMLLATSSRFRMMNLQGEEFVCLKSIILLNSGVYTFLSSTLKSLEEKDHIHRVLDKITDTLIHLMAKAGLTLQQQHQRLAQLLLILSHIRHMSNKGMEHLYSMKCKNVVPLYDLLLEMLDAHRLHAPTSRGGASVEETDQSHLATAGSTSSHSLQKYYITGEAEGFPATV

[2] = tested on: MCF7; assay: Antiproliferative activity against human MCF7 cells assessed as cell growth inhibition; format: functional, cell-based
[3] = molecular target: T1, Estrogen receptor; assay: Induction of estrogen receptor degradation in human MCF7 cells; format: cell-based
[4] = Clearance in CD-1 mouse; format: ADME; settings: in vivo
[5] = Volume of distribution in CD-1 mouse; format: ADME; settings: in vivo
[6] = AUC (0 to last) in CD-1 mouse at 2.5 mg/kg, po; format: ADME, organism-based; design: time 0 - last, route oral, dose 2.5 mg/kg; settings: in vivo
[7] = Oral bioavailability in CD-1 mouse; format: ADME, organism-based; settings: in vivo
[8] = tested on: MCF7; assay: Antitumor activity against human MCF7 cells expressing ER xenografted in BALB/c mouse assessed as tumor growth suppression at 20 mg/kg, po qd administered for 21 days; format: functional, organism-based; settings: time 21.0 day
[9] = tested on: MCF7; assay: Antitumor activity against human MCF7 cells expressing ER xenografted in BALB/c mouse assessed as tumor growth inhibition at 20 mg/kg, po qd administered for 21 days and measured on day 19 relative to control; format: functional; settings: 456 h, time 19 day, read-out: TGI
[10] = molecular target: Voltage-gated inwardly rectifying potassium channel KCNH2 (Homo sapiens, UniProt Q12809); assay: Inhibition of human ERG by automatic Q-patch assay
Sequence of Voltage-gated inwardly rectifying potassium channel KCNH2 (Q12809 whole entry): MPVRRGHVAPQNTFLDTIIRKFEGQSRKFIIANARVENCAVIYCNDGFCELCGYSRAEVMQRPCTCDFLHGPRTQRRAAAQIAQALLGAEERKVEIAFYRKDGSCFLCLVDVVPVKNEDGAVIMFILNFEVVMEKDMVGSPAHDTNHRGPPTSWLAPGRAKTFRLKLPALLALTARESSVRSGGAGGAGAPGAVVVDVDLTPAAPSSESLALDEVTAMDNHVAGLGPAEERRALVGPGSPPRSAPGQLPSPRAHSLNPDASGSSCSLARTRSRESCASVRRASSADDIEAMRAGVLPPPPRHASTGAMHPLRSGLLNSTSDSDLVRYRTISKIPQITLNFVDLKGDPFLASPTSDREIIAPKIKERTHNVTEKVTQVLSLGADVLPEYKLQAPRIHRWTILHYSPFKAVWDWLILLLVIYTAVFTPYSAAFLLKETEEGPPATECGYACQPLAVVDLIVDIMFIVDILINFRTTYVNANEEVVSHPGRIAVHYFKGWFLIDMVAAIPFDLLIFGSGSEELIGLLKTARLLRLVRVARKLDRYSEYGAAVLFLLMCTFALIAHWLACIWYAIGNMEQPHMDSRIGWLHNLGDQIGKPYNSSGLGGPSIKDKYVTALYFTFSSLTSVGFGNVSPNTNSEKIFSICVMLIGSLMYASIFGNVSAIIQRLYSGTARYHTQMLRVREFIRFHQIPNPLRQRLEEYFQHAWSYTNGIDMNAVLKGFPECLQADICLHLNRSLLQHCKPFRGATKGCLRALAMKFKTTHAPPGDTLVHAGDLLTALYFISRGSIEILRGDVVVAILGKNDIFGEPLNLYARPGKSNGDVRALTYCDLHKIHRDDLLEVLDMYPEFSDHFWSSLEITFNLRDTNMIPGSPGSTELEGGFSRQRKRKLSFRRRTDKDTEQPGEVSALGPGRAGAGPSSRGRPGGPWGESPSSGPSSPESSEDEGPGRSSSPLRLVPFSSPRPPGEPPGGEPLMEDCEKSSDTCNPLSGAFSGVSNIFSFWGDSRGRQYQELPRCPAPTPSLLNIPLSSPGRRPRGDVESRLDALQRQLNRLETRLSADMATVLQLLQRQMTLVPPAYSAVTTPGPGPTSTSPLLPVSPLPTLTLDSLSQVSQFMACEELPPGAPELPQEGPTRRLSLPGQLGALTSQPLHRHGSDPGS

IC50 [1] [µM]	IC50 [2] [µM]	IC50 [3] [µM]	SMILES	other results
–	2.2	2.45	CC/C(=C(/c1ccc(/C=C/C(=O)O)cc1)c1cc2ccccc2[nH]1)c1ccc(Cl)c(C(F)(F)F)c1	–
0.00098	0.027	0.006	CC/C(=C(/c1ccc(/C=C/C(=O)O)cc1)c1cc2ccccc2[nH]1)c1ccc(C(F)(F)F)cc1Cl	–
0.00087	0.008	0.004	CC/C(=C(/c1ccc(/C=C/C(=O)O)cc1)c1cc2ccccc2[nH]1)c1ccccc1C(F)(F)F	clearance [4]: 0.332 L/h/kg; Vd [5]: 1.12 L/kg; AUC(0-t) [6]: 4.21 µM·h; bioavailability [7]: 25.7%; inhibition [8]: Active; inhibition in vivo at 20 mg/kg [9]: 112%; inhibition (INH) ([10]; human): Active
–	0.278	0.723	CC/C(=C(/c1ccc(/C=C/C(=O)O)cc1)c1cc2ccccc2[nH]1)c1ccc(C#N)cc1	–
0.00022	0.061	0.03	CC/C(=C(/c1ccc(/C=C/C(=O)O)cc1)c1cc2ccccc2[nH]1)c1ccc(OC)cc1	–
–	0.139	0.163	CC/C(=C(/c1ccc(/C=C/C(=O)O)cc1)c1cc2ccccc2[nH]1)c1ccc(C(F)(F)F)cc1	–
0.00174	0.343	0.271	CC/C(=C(/c1ccc(/C=C/C(=O)O)cc1)c1cc2ccccc2[nH]1)c1ccc(Cl)cc1	–
0.00471	0.282	0.068	CC/C(=C(/c1ccc(/C=C/C(=O)O)cc1)c1cc2ccccc2[nH]1)c1cccc(OC(F)(F)F)c1	–
0.00175	0.325	0.131	CC/C(=C(/c1ccc(/C=C/C(=O)O)cc1)c1cc2ccccc2[nH]1)c1cccc(C(F)(F)F)c1	–

The remaining lines, values behind:

SMILES	IC50 [1] [µM]	IC50 [2] [µM]	IC50 [3] [µM]	other results
CC/C(=C(/c1ccc(/C=C/C(=O)O)cc1)c1cc2ccccc2[nH]1)c1cccc(C)c1	0.00146	0.14	0.069	–
C[C@@H]1Cc2c([nH]c3ccccc23)[C@@H](c2c(F)cc(/C=C/C(=O)O)cc2F)N1CC(C)(C)F [AZD-9496]	–	0.00049	–	–
CC/C(=C(/c1ccc(/C=C/C(=O)O)cc1)c1cc2ccccc2[nH]1)c1ccccc1OC(F)(F)F	0.00241	0.206	0.093	–
CC/C(=C(/c1ccc(/C=C/C(=O)O)cc1)c1cc2ccccc2[nH]1)c1ccc(Cl)cc1Cl	0.00152	0.011	0.009	–
CC/C(=C(/c1ccc(/C=C/C(=O)O)cc1)c1cc2ccccc2[nH]1)c1cccc(Cl)c1Cl	0.00318	0.898	0.495	–
CC/C(=C(/c1ccc(/C=C/C(=O)O)cc1)c1cc2ccccc2[nH]1)c1ccccc1C	0.00017	0.033	0.009	–
CC/C(=C(/c1ccc(/C=C/C(=O)O)cc1)c1cc2ccccc2[nH]1)c1ccc(Cl)c(C)c1	–	0.84	1.39	–
CC/C(=C(/c1ccc(/C=C/C(=O)O)cc1)c1cc2ccccc2[nH]1)c1ccc(Cl)cc1C(F)(F)F	0.00076	0.004	0.002	clearance [4]: 0.412 L/h/kg; Vd [5]: 1.6 L/kg; AUC(0-t) [6]: 6.36 µM·h; bioavailability [7]: 52.4%; inhibition [8]: Active; inhibition in vivo at 20 mg/kg [9]: 117%; IC50 [10]: > 30 µM
CC/C(=C(/c1ccc(/C=C/C(=O)O)cc1)c1cc2ccccc2[nH]1)c1ccc(Cl)cc1C#N	0.00016	0.014	0.018	–
CC/C(=C(/c1ccc(/C=C/C(=O)O)cc1)c1cc2ccccc2[nH]1)c1ccccc1C#N	0.00024	0.009	0.009	–
CC/C(=C(/c1ccc(/C=C/C(=O)O)cc1)c1cc2ccccc2[nH]1)c1ccc(F)cc1Cl	0.0016	0.039	0.021	–
CC/C(=C(/c1ccc(/C=C/C(=O)O)cc1)c1cc2ccccc2[nH]1)c1c(C)cccc1Cl	–	0.03	0.042	–
CC/C(=C(/c1ccc(/C=C/C(=O)O)cc1)c1cc2ccccc2[nH]1)c1ccccc1Cl	0.00044	0.042	0.029	–
CC/C(=C(/c1ccc(/C=C/C(=O)O)cc1)c1cc2ccccc2[nH]1)c1ccccc1	0.00028	0.108	0.0666	–
CC/C(=C(/c1ccc(/C=C/C(=O)O)cc1)c1cc2ccccc2[nH]1)c1ccc(C#N)cc1Cl	0.00017	0.049	0.031	–
CC/C(=C(/c1ccc(/C=C/C(=O)O)cc1)c1cc2ccccc2[nH]1)c1cccc(F)c1C#N	0.00017	0.04	0.049	–
CC/C(=C(/c1ccc(/C=C/C(=O)O)cc1)c1cc2ccccc2[nH]1)c1cc(Cl)ccc1Cl	0.0014	0.071	0.025	–
